According to patent US8076377B2, “N,N-dimethyl imidodicarbonimidic diamide dicarboxylate, method for producing the same and pharmaceutical compositions comprising the same” (Hanall Pharmaceutical Company, Ltd., priority 2007, dated 2011):
Counter-ions that a name gives are not always drawn.

Tests used:
[1] = tested on: rabbit; conditions: oral; cited from earlier work
[2] = pH at saturation
[3] = Water content with Karl-Fisher moisture meter after exposure to temperature/relative humidity (hygroscopicity, hydrate stability)
[4] = tested on: hyperlipidemia-induced rats; experiment: Effect on blood lipid, oral administration for 1 week to hyperlipidemia-induced rats (blood biochemical tests); conditions: 500 mg/kg oral for 1 week, average ± standard deviation
[5] = tested on: rat; conditions: oral; cited from earlier work

Compound	Saturation pH [2]	water content ([3]; 40° C., 75% R.H., day 0)	water content ([3]; 40° C., 75% R.H., day 1)	water content ([3]; 40° C., 75% R.H., day 2)	water content ([3]; 40° C., 75% R.H., day 5)	water content ([3]; 60° C., 15% R.H., day 0)	water content ([3]; 60° C., 15% R.H., day 1)	water content ([3]; 60° C., 15% R.H., day 2)	water content ([3]; 60° C., 15% R.H., day 5)	ALT [4]	AST [4]	BUN [4]	CHO (Cholesterol) [4]	CRE [4]	HDL [4]	LDL [4]	TG (Triglyceride) [4]	also measured
Cl [Hydrochloric acid]	–	–	–	–	–	–	–	–	–	–	–	–	–	–	–	–	–	LD50 (50% lethal dose) [1]: LD50 900 mg/kg
CN(C)C(=N)N=C(N)N.O=C(O)CCCC(=O)O [Metformin glutarate, metformin (2:1) glutarate]	10.200	–	–	–	–	–	–	–	–	–	–	–	–	–	–	–	–	–
CN(C)C(=N)N=C(N)N [Metformin hydrochloride, metformin hydrochloride, reference compound]	2.892	0.080 wt %	0.069 wt %	0.053 wt %	0.054 wt %	0.080 wt %	0.044 wt %	0.047 wt %	0.056 wt %	49.8 ± 4.8 IU/L	126.9 ± 8.4 IU/L	13.6 ± 0.4 mg/dL	277.1 ± 21.8 mg/dL	0.5 ± 0.0 mg/dL	42.5 ± 1.0 mg/dL	198.3 ± 18.5 mg/dL	37.3 ± 1.5 mg/dL	–
CN(C)C(=N)NC(=N)N [Metformin malate, metformin (2:1) malate]	3.950	–	–	–	–	–	–	–	–	–	–	–	–	–	–	–	–	–
O=C(O)CCCC(=O)O [glutaric acid]	–	–	–	–	–	–	–	–	–	–	–	–	–	–	–	–	–	LD50 (50% lethal dose) [5]: LD50 6000 mg/kg
metformin (2:1) malonate [Metformin malonate]	–	5.143 wt %	5.403 wt %	5.288 wt %	5.376 wt %	5.143 wt %	5.222 wt %	5.219 wt %	5.184 wt %	49.0 ± 7.0 IU/L	136.6 ± 11.6 IU/L	15.3 ± 0.9 mg/dL	238.2 ± 16.4 mg/dL	0.5 ± 0.0 mg/dL	40.4 ± 1.4 mg/dL	168.3 ± 13.7 mg/dL	50.3 ± 7.9 mg/dL	–
